Laboratory results taken from PMC11561622, “Evaluating Antimalarial Proteasome Inhibitors for Efficacy in Babesia Blood Stage Cultures” (ACS Omega, 2024).
Entries after “also recorded” stand apart in the source; their conditions may differ.

Experiments:
[1] = tested on: B. divergens proteasome β5 subunit; format: biochemical, Babesia divergens
Protocol: (§1) B. divergens and B. microti protein lysates were prepared from infected red blood cells. Briefly, red blood cells were lysed with 0.15% saponin prepared in 1× Phosphate-Buffered Saline (PBS), pH 7.5, to release intact parasites. Parasites were washed with 1× PBS, pH 7.5 (PBS), by centrifugation and the pellets were stored at −80 °C in PBS plus 20% glycerol. To prepare protein lysates for enzymatic assays, parasites were thawed and transferred to 50 mM HEPES (pH 7.5), 10 μM E64, 100 μM AESBF, 1 μM Pepstatin A, and 1 mM DTT (all Sigma-Aldrich). Cells were ruptured by ultrasonication with an amplitude of 0.5 for 3 cycles of 15 s on ice. To prepare protein lysates for activity-based probing and proteasome purification, parasites were thawed and transferred to 20 mM Tris-HCl, pH 7.5, 1 mM DTT, 10 μM E64, and 5% glycerol. The lysate was sonicated on ice for 3 times and clarified by centrifugation at 17,000g for 10 min at 4 °C.
To further improve the detection of the β5 subunit activity with the Suc-LLVY-amc substrate of the Babesia proteasome as previously published,[27] we aimed to further optimize assay conditions. However, to reduce the number of experimental animals in the study, assay conditions were optimized using protein lysates of B. divergens, which can be grown in vitro, instead of B. microti lysates, which need to be maintained in mice. […] Assay conditions were optimized in 50 μL volumes in round-bottom 96-well plates. Two assay buffers were evaluated. Buffer A, as described previously,[27] consists of 20 mM HEPES, pH 8, 1 mM ATP, and 1 μM E64, while Buffer B consists of 50 mM HEPES, pH 7.5, 5 mM ATP, 10 μM E64, 100 μM AESBF, 1 μM Pepstatin A, and 1 mM DTT. Buffers A and B were tested with either 0.02% SDS or 6.67 ng of PA28 as activators of the proteasome activity. […] The release of the AMC fluorophore was monitored at 37 °C in a Synergy HTX multimode reader (BioTek) with excitation and emission wavelengths set to 340 and 460 nm, respectively.
Proteasome activity in B. microti and B. divergens lysates was screened in the presence of carmaphycin B (CPB) and numerous analogs that were previously designed to target the P. falciparum 20S proteasome.[30] A pool of lysates was made for each species to ensure that equal amounts of the lysates were used in each inhibition reaction. Inhibitors were transferred to black 384-well plates with the ATS acoustic transfer system (ATS-100, Biosera). Lysates were incubated with inhibitors for 30 min at room temperature and activity was assayed in 30 μL reactions. Each reaction mixture contained 5 μL of Babesia lysate, 10 nL of the inhibitor (final concentration of 133.33 nM), and 25 μL of assay buffer with 25 μM substrate succinyl-Leu-Leu-Val-Tyr-7-amido-4-methylcoumarin (Suc-LLVY-amc). The release of the AMC fluorophore was monitored at 37 °C in a Synergy HTX multimode reader (BioTek Instruments, Winooski, VT) with excitation and emission wavelengths set to 340 and 460 nm, respectively. Activity was quantified as RFU per second and normalized to the DMSO control reactions.

[2] = tested on: B. microti proteasome β5 subunit; assay: β5 proteasome activity in B. microti lysates (Suc-LLVY-amc); format: biochemical, Babesia microti; details: 133.33 nM inhibitor, relative to DMSO
Protocol: as §1
To further improve the detection of the β5 subunit activity with the Suc-LLVY-amc substrate of the Babesia proteasome as previously published,[27] we aimed to further optimize assay conditions. However, to reduce the number of experimental animals in the study, assay conditions were optimized using protein lysates of B. divergens, which can be grown in vitro, instead of B. microti lysates, which need to be maintained in mice. […] Two assay buffers were evaluated. […] The release of the AMC fluorophore was monitored at 37 °C in a Synergy HTX multimode reader (BioTek) with excitation and emission wavelengths set to 340 and 460 nm, respectively.
Proteasome activity in B. microti and B. divergens lysates was screened in the presence of carmaphycin B (CPB) and numerous analogs that were previously designed to target the P. falciparum 20S proteasome.[30] […] The release of the AMC fluorophore was monitored at 37 °C in a Synergy HTX multimode reader (BioTek Instruments, Winooski, VT) with excitation and emission wavelengths set to 340 and 460 nm, respectively. Activity was quantified as RFU per second and normalized to the DMSO control reactions.

[3] = tested on: catalytic subunits of Bd20S; assay: Activity-based probe labeling (Me4BodipyFL-Ahx3Leu3VS) of Bd20S catalytic subunits; format: binding, Babesia divergens; details: lysates from CFZ- and CPB-treated cells, vs vehicle

CCCCCC(=O)N[C@H](C(=O)N[C@@H](CCS(C)(=O)=O)C(=O)N[C@@H](CC(C)C)C(=O)[C@@]1(C)CO1)C(C)C [carmaphycin B]
inhibition of β5 activity in B. divergens lysate (in words) [1]: to the same extent as CFZ; also recorded: completely inactivate | inhibition of β5 activity in B. microti lysate (in words) [2]: to the same extent as CFZ | inhibition of β5 activity in B. microti lysate (in words) ([2]; listed as CPB): inhibited | labeling of catalytic subunits by activity-based probe [3]: significantly reduced
